US9872824B2, “Semi-permanent hair straightening composition and method” (Lubrizol Advanced Materials, Inc., priority 2013, dated 2018)

How the values were obtained:
[1] = Solution dipping, flat-iron thermal straightening, imaging analysis of tress length and width; set-up: species or system human; conditions: for Ranking for semi-permanent thermal straightening efficiency: from imaging analysis data; for Comparative straightening behaviour in words: imaging analysis data
Protocol: (§1) This method is used primarily to screen and select candidate molecules as possible thermally-activated agents. Typically, a solution of the candidate molecule is prepared in a suitable solvent system. The hair-tress is immersed completely in the solution with controlled concentration of candidate thermally-activated agent, pH, temperature and soaking time, such as for up to 60 minutes. Then, the hair-tress is removed from the solution, excess amount of material squeezed out, and the tress is blow-dried to at least 95% dryness before thermal straightening.
2. Image Analysis: the method can be used to quantify the curly hair-tress thermal straightening efficiency for different treatments. Measurements of tress length and width at half-length can be made with this method.
As for other tests, a curly hair-tress was completely immersed in an aqueous solution of a selected one of the small molecules and soaked for 45 minutes. Each solution contained an equimolar amount of the selected small molecule. The hair-tress was then removed from the solution, excess water was squeezed out manually, and the hair dried by a blower dryer to the desired dryness before thermal straightening, as described above.
The imaging analysis method was used to measure the total length and width of the hair-tress before and after the thermal straightening process, and after each shampoo-wash-cycle. More specifically, photographs of hair tresses or bundles of hair tresses were taken against a solid color background with a tripod-mounted digital camera. Illumination was selected to minimize shadows which could affect measurements. The tress was hung from a spindle that enabled the tress to be rotated 90 degrees so that pictures could be taken from four different angles, providing a full view of the tress, with a ruler mounted close to the tress as a scale.
The National Institutes for Health's Image J software program was used for image processing and analysis. […] The curly hair-tress has a contour length of 20 cm, and the top glued part is 2.0 cm wide and is about 0.4 cm of length. Therefore, the effective hair-tress contour length is 19.6 cm.

[2] = Solution-dipping screening, flat-iron straightening, shampoo-wash-fastness; set-up: species or system human; conditions: used alone under the same conditions
Protocol: as §1
The shampoo-wash-fastness is carried out by applying shampoo (VO5 or Suave shampoo) on the hair-tress which is massaged for 30 seconds followed by rinsing for 60 seconds with running warm water (32-35° C.). The washed hair-tress is then dried at 23° C. and 50% RH. Consecutive shampoo-wash-cycles are carried out without the drying step.
In the following initial screening test, the examination of thermally straightened hair-tresses is performed by visually examining a tress which has been treated in a solution containing up to 30 wt. % of a candidate thermally-activated agent for 45 minutes, flat-ironed at 210° C. (10×12 seconds). After three consecutive wash cycles, if the dried hair-tress (23° C. and 50% RH) becomes curly, this material is considered not effective, i.e. not worth a further evaluation in a cream formulation.

[3] = Solubility in water at room temperature; format: physicochemical; conditions: room temperature (25° C.)
[4] = average over 1-24 shampoos after thermal treatment
[5] = thermally-treated tress, equimolar aqueous solution, 45 min soak
[6] = thermally-treated tress, width at half-length

Solubility in water [3]	SMILES	Front: Width1/2 [1, 4]	Lengthmax [1, 4]	Side: Width1/2 [1, 4]	Ranking for semi-permanent thermal straightening efficiency [1]	Lengthmax [1, 5]	Front: Width1/2 [1, 6]	Side: Width1/2 [1, 6]	Straightening effectiveness relative to ethylene carbonate [2]	Comparative straightening behaviour in words [1]
	O=CC(=O)O [GA, Glyoxylic Acid]	2.5 ± 0.5 cm	19.2 ± 0.3 cm	1.4 ± 0.2 cm	GA≈EC≈F≧TC>O>EU>U	19.5 cm	2.8 cm	1.2 cm		
	O=C1OCC(CO)O1 (centres unmarked) [GC, glycerol carbonate]								less effective	
	O=C1NCCN1 [EU, Ethylene Urea]	4.1 ± 0.2 cm	18.2 ± 0.2 cm	2.6 ± 0.1 cm	GA≈EC≈F≧TC>O>EU>U	19.4 cm	3.2 cm	1.6 cm		relax the curly hair-tress to some degree
up to 20 wt. %	CC1COC(=O)O1 (centres unmarked) [PC, propylene carbonate]								less effective	
	O=C1NCCO1 [O, 2-oxazolidinone]	3.9 ± 0.2 cm	18.4 ± 0.1 cm	2.7 ± 0.2 cm	GA≈EC≈F≧TC>O>EU>U	19.3 cm	3.3 cm	1.7 cm		gives better straightening results than urea (U) and ethylene urea (EU)
	NC(N)=O [U, Urea]	5.8 ± 0.2 cm	18.2 ± 0.2 cm	4.0 ± 0.4 cm	GA≈EC≈F≧TC>O>EU>U	19.6 cm	3.6 cm	2.0 cm		relax the curly hair-tress to some degree
	O=C1OCCO1 [EC, ethylene carbonate]	2.6 ± 0.1 cm	19.4 ± 0.1 cm	1.5 ± 0.1 cm		19.4 cm	3.6 cm	0.9 cm		behave similarly to formaldehyde (F) and glyoxylic acid (GA)
